Experimental data reported in patent publication US20260193255A1, “7-AZAINDOLE COMPOUNDS, PREPARATION METHOD THEREFOR, AND USE THEREOF” (Fudan University, priority 2022, published 2026).

Key:
[1] = target: ActRIIB (Homo sapiens, UniProt Q13705); experiment: ActRIIB inhibitory activity, ADP-Glo assay kit; type: biochemical; details: ATP 25 μM, substrate 0.1 mg/mL, ActRIIB 20.0 ng/μL
Method: The ATP and substrate concentrations recommended by the ADP-Glo™ assay kit were used, which were 25 μM and 0.1 mg/mL, respectively, and a series of isocratic final ActRIIB concentrations were set up, which were 0, 0.47, 0.94, 1.88, 3.75, 7.5, 15, 30, and 60 ng/μL, respectively. According to the […] values obtained in the experiment, an ActRIIB concentration titration curve was drawn. The ActRIIB concentrations corresponding to the ratio of the signal value to the background value (i.e., signal-to-background ratio, SBR) in the range of 5-10 times are suitable for screening compounds for inhibition of ActRIIB activity. From the ActRIIB concentration titration curve, the final ActRIIB concentrations corresponding to SB5 and SB10 were calculated to be 14.9 and 23.7 ng/μL, respectively. Finally, a final concentration of 20.0 ng/μL was selected as the experimental concentration for screening compounds for their inhibitory activity against ActRIIB. The inhibitory efficiency of 7-azaindole compounds on ActRIIB was detected at concentrations of 0.1, 1, 10, and 100 nM, respectively.

[2] = test system: mouse myoblasts (C2C12); experiment: Atrophy of mouse myoblasts (C2C12) induced by C26 cell supernatant, myotube diameter by HE staining; type: cell-based; details: 48 hours treatment, C26 supernatant-induced C2C12 myotubes
Method: C2C12 cells were inoculated in 24-well plates. The culture system was high-glucose DMEM medium containing 10% FBS with 1% penicillin-streptomycin. The plates were placed in a 5% CO2, 37° C. environment. When the cell growth density reached 50%-60%, the culture system was replaced with high-glucose DMEM culture medium containing 2% HS with 1% penicillin-streptomycin. Fresh 2% HS differentiation medium was replaced every 48 hours, and the cells were differentiated into mature cells on the 5th or 6th day. Additionally, C26 cells were inoculated in T75 flasks. The culture system was high-glucose DMEM medium containing 10% FBS with 1% penicillin-streptomycin. The flasks were placed in a 5% CO2, 37° C. environment. When subculturing, the cells were subcultured at 6 million cells/flask. After culturing in 20 ml of culture medium for 48 hours, the supernatant was collected and centrifuged at 1000 rpm for 3 mins. The supernatant was collected and centrifuged at 4000 rpm for 10 mins to obtain the C26 supernatant. The C26 supernatant and 2% HS differentiation solution were mixed at a ratio of 1:1 (volume ratio) as the muscle atrophy induction solution. Except for the control group in which 2% HS differentiation solution was added, for the other groups, an equivalent amount of muscular atrophy induction solution was added. One group was used as the model group, and the other groups were used as the treatment and experimental groups.
The diameter of myotubes after differentiation of mouse myoblasts (C2C12) was evaluated by using the diameter measurement method. The method for measuring the diameter of myotubes was as follows: after 48 hours of treatment, the myotubes were fixed with a fixative (anhydrous ethanol: formaldehyde: glacial acetic acid (volume ratio)=20:2:1) for more than 1 h and stained. The staining method used in the experiment is hematoxylin-eosin staining, referred to as HE staining for short. Hematoxylin stain is alkaline and positively charged, and it can easily bind to the negatively charged and acidic deoxyribonucleic acid (DNA) in the cell nucleus through ionic bonds to stain it blue; eosin is an acidic dye that dissociates into negatively charged anions in water, and it can easily bind to the positively charged amino groups of proteins in the cytoplasm to stain it red. The stained cells were placed under a high-power microscope to take pictures (magnification: 200 times), and the diameter of myotube cells was statistically analyzed using image J software. The muscle atrophy reversal rate was calculated according to the following formula: Muscle atrophy reversal rate=(average value of myotubes in the treatment group-average value of myotubes in the model group)/(average value of myotubes in the control group-average value of myotubes in the model group)×100%

[3] = Mus musculus, read-out: Myotube atrophy reversal rate

Chain of ActRIIB (Q13705 19-512): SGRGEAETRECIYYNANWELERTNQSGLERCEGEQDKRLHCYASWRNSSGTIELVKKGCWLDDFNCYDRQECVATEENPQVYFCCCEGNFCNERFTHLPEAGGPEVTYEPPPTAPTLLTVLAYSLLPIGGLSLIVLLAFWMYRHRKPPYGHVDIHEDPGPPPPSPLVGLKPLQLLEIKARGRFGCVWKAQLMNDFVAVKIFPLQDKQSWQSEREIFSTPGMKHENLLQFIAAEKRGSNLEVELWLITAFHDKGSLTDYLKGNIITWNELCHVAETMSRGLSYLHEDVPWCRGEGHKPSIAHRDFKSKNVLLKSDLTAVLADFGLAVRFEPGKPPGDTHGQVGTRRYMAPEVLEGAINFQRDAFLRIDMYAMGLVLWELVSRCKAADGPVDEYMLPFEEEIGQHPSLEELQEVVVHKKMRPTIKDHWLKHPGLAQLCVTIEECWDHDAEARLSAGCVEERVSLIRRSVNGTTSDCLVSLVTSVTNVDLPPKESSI

`CN1CCN(c2ccc(-c3cnc4[nH]cc(-c5cnn(C)c5)c4c3)cc2)CC1` [Compound 9, 5-[4-(4-methylpiperazin-1-yl)phenyl]-3-(1-methylpyrazol-4-yl)-1H-pyrrolo[2,3-b]pyridine] was tested, and the IC50 [1] was 70.8 nM and the inhibition at 2.5 µM [2, 3] was 61.1%.

`c1cc(-c2c[nH]c3ncc(-c4ccc(OCCN5CCOCC5)cc4)cc23)n[nH]1` [Compound 20, 3-(1H-pyrazol-3-yl)-5-(4-[[2-(1,4-oxazacyclohexan-4-yl)ethyl]oxy]phenyl)-1H-pyrrolo[2,3-b]pyridine] was tested, and the “Myotube atrophy reversal rate” value ([2]; 1.25 μM) was 54.04%.

In the case of `Cn1nccc1-c1c[nH]c2ncc(-c3ccc(N4CCNCC4)cc3)cc12` [Compound 17, 3-(2-methylpyrazol-3-yl)-5-[4-(piperazin-1-yl)phenyl]-1H-pyrrolo[2,3-b]pyridine], the IC50 [1] is reported as 3.61 nM, the inhibition at 1.25 µM ([2]; Mus musculus, 1.25 μM, read-out: Myotube atrophy reversal rate) is reported as 39.9% and the inhibition at 2.5 µM [2, 3] is reported as 65%. It also gave an inhibition at 5 µM [2, 3] of 97.7%.

In the case of `CC(C)n1nccc1-c1c[nH]c2ncc(-c3ccc(N4CCN(C)CC4)cc3)cc12` [Compound 8, 5-[4-(4-methylpiperazin-1-yl)phenyl]-3-[2-(prop-2-yl)pyrazol-3-yl]-1H-pyrrolo[2,3-b]pyridine], the IC50 [1] is reported as 2.6 nM and the inhibition at 5 µM [2, 3] is reported as 62.2%.

With `CN1CCN(c2ccc(-c3cnc4[nH]cc(-c5cccnc5)c4c3)cc2)CC1` [Compound 22, 5-[4-(4-methylpiperazin-1-yl)phenyl]-3-(pyridin-3-yl)-1H-pyrrolo[2,3-b]pyridine] the IC50 [1] was 87.3 nM and the inhibition at 5 µM [2, 3] was 75.4%.

Work on `CN1CCN(c2ccc(-c3cnc4[nH]cc(-c5ccccc5)c4c3)cc2)CC1` [Compound 25, 5-[4-(4-methylpiperazin-1-yl)phenyl]-3-phenyl-1H-pyrrolo[2,3-b]pyridine] yielded an IC50 [1] of 1.2 nM and an inhibition at 5 µM [2, 3] of 77.1%.

Molecule `CN1CCN(Cc2ccc(-c3cnc4[nH]cc(-c5ccnn5C)c4c3)cc2)CC1` [Compound 15, 5-{4-[(4-methylpiperazin-1-yl)methyl]phenyl}-3-(2-methylpyrazol-3-yl)-1H-pyrrolo[2,3-b]pyridine] has an inhibition at 2.5 µM [2, 3] of 47.5%, an inhibition at 5 µM [2, 3] of 99.1% and an inhibition at 10 µM [2, 3] of 109%.

`Cn1nccc1-c1c[nH]c2ncc(-c3ccc(OCCN4CCCCC4)cc3)cc12` [Compound 13, 5-(4-{[2-(hexahydropyridin-1-yl)ethyl]oxy}phenyl)-3-(2-methylpyrazol-3-yl)-1H-pyrrolo[2,3-b]pyridine] was tested, and the IC50 [1] was 12.6 nM and the inhibition at 10 µM [2, 3] was 86.2%.

Molecule `CN1CCN(c2ccc(-c3cnc4[nH]cc(-c5ccncc5)c4c3)cc2)CC1` [Compound 24, 5-[4-(4-methylpiperazin-1-yl)phenyl]-3-(pyridin-4-yl)-1H-pyrrolo[2,3-b]pyridine] has an IC50 [1] of 59.3 nM and an inhibition at 5 µM [2, 3] of 76.7%.

For `Cn1nccc1-c1c[nH]c2ncc(-c3ccc(OCCN4CCOCC4)cc3)cc12` [Compound 12, 3-(2-methylpyrazol-3-yl)-5-(4-{[2-(1,4-oxazacyclohexan-4-yl)ethyl]oxy}phenyl)-1H-pyrrolo[2,3-b]pyridine], the inhibition at 5 µM [2, 3] was 73.8%.

Molecule `CN1CCN(c2ccc(-c3cnc4[nH]cc(-c5ccnn5C)c4c3)cc2)CC1` [Compound 6, 5-[4-(4-methylpiperazin-1-yl)phenyl]-3-(2-methylpyrazol-3-yl)-1H-pyrrolo[2,3-b]pyridine] has an IC50 [1] of 1.4 nM, an inhibition at 2.5 µM [2, 3] of 45.9% and an inhibition at 5 µM [2, 3] of 79.1%. The inhibition at 10 µM [2, 3] was 99.8%.

In the case of `CN1CCN(c2ccc(-c3cnc4[nH]cc(-c5cncnc5)c4c3)cc2)CC1` [Compound 23, 5-[4-(4-methylpiperazin-1-yl)phenyl]-3-(pyrimidin-5-yl)-1H-pyrrolo[2,3-b]pyridine], the IC50 [1] is reported as 4.8 nM and the inhibition at 5 µM [2, 3] is reported as 97.9%.

`Cn1nccc1-c1c[nH]c2ncc(-c3ccc(N4CCOCC4)cc3)cc12` [Compound 16, 3-(2-methylpyrazol-3-yl)-5-[4-(1,4-oxazacyclohexan-4-yl)phenyl]-1H-pyrrolo[2,3-b]pyridine] showed an IC50 [1] of 1.86 nM and an inhibition at 5 µM [2, 3] of 78%.

For `CN1CCN(c2ccc(-c3cnc4[nH]cc(-c5cn[nH]c5)c4c3)cc2)CC1` [Compound 1, 3-(1H-pyrazol-4-yl)-5-[4-(4-methylpiperazin-1-yl)phenyl]-1H-pyrrolo[2,3-b]pyridine], the IC50 [1] was 20.4 nM and the inhibition at 2.5 µM [2, 3] was 63.5%.

Molecule `Cc1n[nH]c(C)c1-c1c[nH]c2ncc(-c3ccc(N4CCN(C)CC4)cc3)cc12` [Compound 5, 3-(3,5-dimethyl-1H-pyrazol-4-yl)-5-[4-(4-methylpiperazin-1-yl)phenyl]-1H-pyrrolo[2,3-b]pyridine] has an IC50 [1] of 1.2 nM and an inhibition at 5 µM [2, 3] of 79.5%.

For `CCN(CC)CCOc1ccc(-c2cnc3[nH]cc(-c4ccnn4C)c3c2)cc1` [Compound 18, 5-(4-{[2-(diethylamino)ethyl]oxy}phenyl)-3-(2-methylpyrazol-3-yl)-1H-pyrrolo[2,3-b]pyridine], the IC50 [1] was 78.9 nM and the inhibition at 10 µM [2, 3] was 84.5%.

`CCn1nccc1-c1c[nH]c2ncc(-c3ccc(N4CCN(C)CC4)cc3)cc12` [Compound 7, 3-(2-ethylpyrazol-3-yl)-5-[4-(4-methylpiperazin-1-yl)phenyl]-1H-pyrrolo[2,3-b]pyridine] was tested, and the IC50 [1] was 4.4 nM and the inhibition at 10 µM [2, 3] was 77.1%.

In the case of `Cc1n[nH]cc1-c1c[nH]c2ncc(-c3ccc(N4CCN(C)CC4)cc3)cc12` [Compound 4, 3-(3-methyl-1H-pyrazol-4-yl)-5-[4-(4-methylpiperazin-1-yl)phenyl]-1H-pyrrolo[2,3-b]pyridine], the IC50 [1] is reported as 58.6 nM and the inhibition at 5 µM [2, 3] is reported as 63.6%.

`CN1CCN(C(=O)c2ccc(-c3cnc4[nH]cc(-c5ccnn5C)c4c3)cc2)CC1` [Compound 14, (4-methylpiperazin-1-yl) {4-[3-(2-methylpyrazol-3-yl)-1H-pyrrolo[2,3-b]pyridin-5-yl]phenyl}ketone] gave an inhibition at 10 µM [2, 3] of 57%.

Work on `Cc1noc(C)c1-c1c[nH]c2ncc(-c3ccc(N4CCN(C)CC4)cc3)cc12` [Compound 19, 3-(3,5-dimethylisoxazol-4-yl)-5-[4-(4-methylpiperazin-1-yl)phenyl]-1H-pyrrolo[2,3-b]pyridine] yielded an IC50 [1] of 24.2 nM and an inhibition at 5 µM [2, 3] of 69.4%.
